Results published in publication PMC4707489, “A novel cell-penetrating peptide suppresses breast tumorigenesis by inhibiting β-catenin/LEF-1 signaling” (Scientific Reports, 2016).

Key:
[1] = system: HEK293 cells
[2] = system: β-catenin/TCF4/LEF-1 downstream genes; assay: Q-PCR of 27 candidate genes in MDA-MB-231; format: cell-based, human; conditions: MDA-MB-231, 100 μmol/l, 48 hr post-transfection, relative to TAT-NLS-BLBD-6m (Fig. 6e)
Experimental: Total RNA was isolated by Trizol reagent (Invitrogen, Carlsbad, CA, USA) and reverse transcribed to produce cDNA using the Deoxy + HiSpec reverse transcriptase kit (Yeastern, Taipei, Taiwan) according to the manufacturer instructions. Q-PCR was analyzed with SYBR Green Master Mix (Applied Biosystems, Stockholm, Sweden) and subjected to quantitation in an […]. The primers used for PCR are given in Supplementary Table S5 online. The Q-PCR data were normalized to 18S cDNA levels.

[3] = system: MDA-MB-231 cells; assay: Transwell invasion assay; format: cell-based, human; conditions: MDA-MB-231, 100 μmol/l, 48 hr post-transfection, vs control or TAT-NLS-BLBD-6m (Fig. 3c)
Experimental: (§1) Transwell chambers of […] pore size were used in the in vitro invasion assay. MCF-7 and MDA-MB-231 cells were seeded onto the upper chamber and incubated with TAT-NLS-BLBD-6 and TAT-NLS-BLBD-6m peptide and 10% fetal bovine serum medium were added to the bottom chamber well. After 24 hr, cells invading the lower chamber were fixed with 4% paraformaldehyde solution and stained with 0.1% crystal violet for 30 min at 37 °C. Three random field images were obtained by microscopy, and the number of invading cells were counted. For the migration assay, MCF-7 and MDA-MB-231 cells were seeded onto 6-well plates. After 24 hr, an artificial wound was created using a 10-μl pipette tip, and the wound was incubated with TAT-NLS-BLBD-6 or TAT-NLS-BLBD-6m for 24 hr at 37 °C. The images of wound healing were captured by microscopy, and the wound healing distances were calculated by Image J (U.S. National Institutes of Health, Bethesda, MD, USA). For the colony formation assay, MCF-7 and MDA-MB-231 cells were seeded into 10-cm dishes with the medium containing TAT-NLS-BLBD-6 or TAT-NLS-BLBD-6m. After 2 weeks, cells were fixed with 4% paraformaldehyde solution and stained with 0.1% crystal violet for 30 min at 37 °C.

[4] = system: MCF-7 cells; assay: Transwell invasion assay; format: cell-based, human; conditions: MCF-7, 100 μmol/l, 48 hr post-transfection, vs control or TAT-NLS-BLBD-6m (Fig. 3c)
Experimental: as §1

[5] = system: ZR-75-30 cells; assay: Cell growth (CCK-8), HER2 positive cell line; format: cell-based, human; conditions: ZR-75-30, 100 μmol/l, CCK-8 at 48 hr post-transfection (Fig. 6f)
Experimental: (§2) Cell growth was analyzed using 2-(2-methoxy-4-nitrophenyl)-3-(4-nitroph enyl)-5-(2,4-disulfophenyl)-2H-tetrazolium, monosodium salt, and the Cell Counting Kit-8 (CCK-8, Sigma). […] After culturing for another 48 hr, cell growth was analyzed by CCK-8 and the optical density was detected at 450 nm. The growth ratio was normalized to the cells without treatment.

[6] = system: H184B5F5/M10 cells
[7] = system: breast cancer cells; assay: Cell growth in combination with E2, BBP or TAM (CCK-8); format: cell-based, human; conditions: 48 hr (Fig. 1e)
Experimental: as §2

[8] = system: MDA-MB-231 cells; assay: Colony-formation assay; format: cell-based, human; conditions: MDA-MB-231, 100 μmol/l, 14 day post-transfection (Fig. 3e)
Experimental: as §1

[9] = system: MCF-7 cells; assay: Colony-formation assay; format: cell-based, human; conditions: MCF-7, 100 μmol/l, 14 day post-transfection (Fig. 3e)
Experimental: as §1

[10] = system: MDA-MB-231 cells; assay: Wound-healing migration assay; format: cell-based, human; conditions: MDA-MB-231, 100 μmol/l, 48 hr post-transfection, vs control or TAT-NLS-BLBD-6m (Fig. 3d)
Experimental: as §1

[11] = system: MCF-7 cells; assay: Wound-healing migration assay; format: cell-based, human; conditions: MCF-7, 100 μmol/l, 48 hr post-transfection, vs control or TAT-NLS-BLBD-6m (Fig. 3d)
Experimental: as §1

[12] = system: β-catenin; assay: Peptide-protein interaction by immunoprecipitation and PLA; format: binding, human
Experimental: Immunoprecipitation and western blotting were performed as described previously. MCF-7 and MDA-MB-231 cells were harvested in 4 °C phosphate-buffered saline and cell pellets were lysed with RIPA lysis buffer (Millipore, Bedford, MA, USA) for 30 min on ice. Cell lysis supernatant liquid was obtained by centrifugation at 10,000 × g for 10 min, incubated with protein-G beads (Roche, Indianapolis, IN) and anti-β-catenin, and subjected to western blotting. For the western blotting assay, cellular extract proteins were separated by SDS-polyacrylamide gel (SDS-PAGE) and transferred to nitrocellulose membrane (Millipore) using a dry transfer apparatus (Bio-Rad). […]
MCF-7 and MDA-MB-231 cells were cultured in 35-mm plates with cover slides on the plate bottom and treated with NLS-BLBD-6, TAT-BLBD-6 and TAT-NLS-BLBD-6 peptide for 24 hr. […] For the immunofluorescence assay, the slides were incubated with primary antibodies, anti-β-catenin (Epitomics) and anti-TAT (Santa Cruz), for 6 hr, and Alexa-488 fluorescence secondary antibodies for 1 hr. […] For the TUNEL assay, apoptosis was analyzed by the Apo-BrdU-red DNA Fragmentation Assay kit, according to the manufacturer’s protocol (BioVision, Mountain View, CA, USA). For the PLA, the protein–protein interaction assay was analyzed by Duolink® using PLA® Technology, according to the manufacturer’s protocol (Olink Bioscience, Uppsala, Sweden). […]

[13] = system: MDA-MB-231 cells; assay: Cell growth (CCK-8); format: cell-based, human
Experimental: as §2

H-TAT-NLS-ATDEMIPF-NH2 [TAT-NLS-BLBD-6]
cell growth of embryonic kidney cells [1]: did not inhibit the growth
gene expression of the 27 candidate genes [2]: decreased
invasion [3]: inhibited the mobility
invasion [4]: inhibited the mobility
cell growth [5]: inhibits the growth
cell growth of normal mammary epithelial cells [6]: did not inhibit the growth
cell growth, combination with E2 or BBP ([7]; peptide 100 μmol/l with E2 (1 μM) or BBP (1 μM)): blocked the activity of E2 and BBP
cell growth, combination with TAM ([7]; peptide 100 μmol/l with TAM (1 μM)): increased the response of TAM
colony formation [8]: inhibited the mobility and proliferation
colony formation [9]: inhibited the mobility and proliferation
migration (wound healing) [10]: inhibited the mobility
migration (wound healing) [11]: inhibited the mobility
binding to β-catenin ([12]; MCF-7 cell nuclei, immunoprecipitation and PLA, 2 hr post-transfection (Fig. 2b,c)): bound to the β-catenin elements
binding to β-catenin ([12]; MDA-MB-231 cell nuclei, PLA, 100 μmol/l, 2 hr post-transfection (Fig. 2c)): bound to the β-catenin elements
cell growth ([13]; 75 μmol/l peptide, MDA-MB-231, CCK-8, means of three experiments (Fig. 1b)): inhibited the growth
time and dose dependence of cell growth ([13]; MDA-MB-231, indicated concentrations, 24, 48 and 72 hr (Fig. 1c,d)): inhibited breast cancer cell growth in a time- and dose-dependent manner
